The subject of experiment [1] is Mycobacterium tuberculosis. The experiment in a line: Antimycobacterial activity against isoniazid-resistant Mycobacterium tuberculosis after 21 days by broth microdilution method. The class given is functional. The following applies: 504 h. On the technique in general: In broth dilution the organism is exposed to a series of concentrations in liquid medium.
Experiment [2] deals with Mycobacterium tuberculosis. The experiment in a line: Antimycobacterial activity against isoniazid-resistant Mycobacterium tuberculosis after 14 days by broth microdilution method. Format: functional. The following applies: 336 h.

The source of these data is ChEMBL document CHEMBL3751688, “Synthesis, in vitro antimycobacterial evaluation and docking studies of some new 5,6,7,8-tetrahydropyrido[4',3':4,5]thieno[2,3-d]pyrimidin-4(3H)-one schiff bases” (Bioorg Med Chem Lett, 2016).

Values after ≈ are worked out from the molar mass of the structure shown. A value given as a limit tells only on which side of the number the result lay.

By MIC is commonly meant the lowest concentration that inhibits growth of the organism. Read a low MIC as greater potency. Take `O=c1c2c3c(sc2ncn1/N=C/c1cccs1)CN(Cc1ccccc1)CC3`: the MIC in experiment [1] and in experiment [2] was 22 µM (≈ 8.94 µg/mL) throughout.
`CN[C@@H]1[C@H](O[C@H]2[C@H](O[C@H]3[C@H](O)[C@@H](O)[C@H](N=C(N)N)[C@@H](O)[C@@H]3N=C(N)N)O[C@@H](C)[C@]2(O)C=O)O[C@@H](CO)[C@H](O)[C@H]1O` [STREPTOMYCIN]: the MIC in experiment [1] and in experiment [2] was 2 µM (≈ 1.16 µg/mL) each time.
For the compound `CO[C@H]1/C=C/O[C@@]2(C)Oc3c(C)c(O)c4c(O)c(c(/C=N/N5CCN(C)CC5)c(O)c4c3C2=O)NC(=O)/C(C)=C\C=C\[C@H](C)[C@H](O)[C@@H](C)[C@@H](O)[C@@H](C)[C@H](OC(C)=O)[C@@H]1C` [RIFAMPIN], the MIC in experiment [1] and in experiment [2] was 2 µM (≈ 1.65 µg/mL) each time.
With `Cc1nc2sc3c(c2c(=O)n1/N=C/c1ccc(C#N)cc1)CCN(Cc1ccccc1)C3`, the minimal inhibitory concentration (MIC) in experiment [1] and in experiment [2] was 20 µM (≈ 8.79 µg/mL) throughout.
As for `N#Cc1ccc(/C=N/n2cnc3sc4c(c3c2=O)CCN(Cc2ccccc2)C4)cc1`, the minimum inhibitory concentration (MIC) in experiment [1] and in experiment [2] was 9 µM (≈ 3.83 µg/mL) throughout.
For the compound `COc1ccc(/C=N/n2cnc3sc4c(c3c2=O)CCN(Cc2ccccc2)C4)cc1`, the MIC in experiment [1] and in experiment [2] was 20 µM (≈ 8.61 µg/mL) throughout.
As to `CC[C@@H](CO)NCCN[C@@H](CC)CO` [ETHAMBUTOL], the MIC in experiment [1] and in experiment [2] was 4 µM (≈ 0.817 µg/mL) in each case.
Turning to `Cc1nc2sc3c(c2c(=O)n1/N=C/c1ccc(Cl)cc1)CCN(Cc1ccccc1)C3`, the MIC in experiment [1] and in experiment [2] was 8 µM (≈ 3.59 µg/mL) throughout.
Regarding `NNC(=O)c1ccncc1` [ISONIAZID], the MIC in experiment [1] and in experiment [2] was over 8 µM each time.
Consider `O=c1c2c3c(sc2ncn1/N=C/c1ccc(Cl)cc1)CN(Cc1ccccc1)CC3`, for which the MIC in experiment [1] and in experiment [2] was 20 µM (≈ 8.7 µg/mL) each time.
